Assays:
C57BL/6 mice = test: SmartCage locomotor activity monitoring; type: in vivo, mouse; settings: 0.3, 1.0, 3.0 and 10 mg/kg, IP, 24 h
Wistar rats = test: Five Choice Serial Reaction Time Task, vITI version, repeated administration; type: in vivo, Wistar rat; design: Latency (Correct) / Latency (Incorrect): unit not given here; settings: for Latency (Correct) / Latency (Incorrect) / Magazine Head Entries / Omissions / Reward Latency / Trials Completed: vITI, mean ± SEM
Source text: The behavioral tasks utilized were three versions of the rat Five Choice Serial Reaction Time Task (5C-SRTT), the standard version of the task (STD) with a fixed stimulus duration and a fixed intertrial interval, the variable stimulus duration (vSD) and the variable intertrial interval (vITI) version. The principal readout parameters in each task were the % Hit and the % correct choices (measures of sustained attention) and three measures of inhibitory response control (premature, perseverative, and timeout responses), although a number of additional outcome measures were obtained (see under Methods and Results below).
Twenty-four adult (approx. 10 months old) male Wistar rats (Envigo, Inc, Indianapolis, IN) were used in the study. […] Subjects were double housed in polycarbonate cages (45×30×18 cm) with corncob bedding in a vivarium of constant temperature (21-23° C.) and humidity (40-50%). […] All behavioral testing was performed during the light portion (9 a.m.-5 p.m.) of the light/dark cycle (Monday thru Friday). Animals were cared for in accordance with the Guide for the Care and Use of Laboratory Animals (U.S. National Institutes of Health) and the experimental protocols were approved by the Institutional Animal Care and Use Committee at Augusta University (Protocol #2010-0044).
The 5C-SRTT procedure (reviewed, Robbins, 2002. Psychopharmacology (Berl); 163(3-4):362-80) was conducted as we have described previously (Terry et al., 2014, Neurotoxicology and Teratology 44:18-29, 2014; Callahan et al., 2020, Neuropharmacology. August 15; 173:107994). […] Animals were trained in eight automated 5C-SRTT operant chambers (Med Associates, St. Albans, VT, USA), controlled by MedPC software (Med Associates). Briefly, each operant chamber was equipped with 5 apertures containing a photocell beam to detect nose pokes and a lamp (2.8 W) that could be illuminated randomly at varying durations. Food pellets (45 mg chow pellet, BioServ, Frenchtown, NJ, USA) were delivered automatically to a magazine, located on the opposite wall to the nose pokes, that was also equipped with a light that turned on to indicate that a pellet had been dispensed. The house-light remained on for the entire session unless an error or omission occurred. Training sessions began with the delivery of a food reward and retrieval triggered the first trial. […] Sessions ended when 40 minutes had lapsed or 100 trials had been completed.
For this study, subjects were re-trained 5 days per week until they re-established a stable performance criteria with a fixed (1.0 sec) stimulus duration and a fixed ITI (5 sec) of 70-75% accuracy, <20% omissions and completion of all 100 trials for 5 consecutive days. Upon meeting these performance criteria animals were trained for one additional week and two groups of subjects (N=12) were assembled and balanced according to their performance accuracy, specifically the % Hit evaluation, which takes into account correct responses as well as all incorrect responses including the number of omissions. […] The vSD version of the task increases the attentional load while the vITI increases impulsivity-like behavior. The following outcome measures and behavioral domains were assessed: % Hit and % correct=sustained attention; omissions=attention/motivation; premature responses=impulsivity; perseverative responses=compulsivity; timeout responses=cognitive inflexibility; magazine head entries=appetitive motivation and compulsivity-like behavior; response latencies=information processing speed and/or motivation. For the STD version of the task, the stimulus duration (SD) was fixed at 1.0 sec and the ITI was fixed at 5 sec. In the vSD version of the task the following stimulus durations were presented in a pseudorandom manner: 0.3, 0.6, and 0.9 sec. In the vITI version, 2.5, 5.0, and 10.0 sec ITIs were employed in a pseudorandom manner. […]

[1] = repeated 0.1 and 0.3 mg/kg IP, 10 sec ITI
[2] = Group 1, 0.1 mg/kg, Drug Exp period
[3] = Group 1, 0.1 mg/kg, Post-Drug Exp (vehicle washout) period
[4] = Group 2, 0.3 mg/kg, Drug Exp period
[5] = Group 2, 0.3 mg/kg, Post-Drug Exp (vehicle washout) period

Clc1ccc(C2(OCC3OCCO3)c3ccccc3C3=NCCN32)cc1 (stereo not shown) [Compound I-19]
home cage activity (activity, rearing, velocity, distance) (C57BL/6 mice): no significant effect on the diurnal or nocturnal activity measures | % Hit (Wistar rats; repeated 0.1 and 0.3 mg/kg IP): modest decrease in accuracy that was limited to the 2.5 sec ITI | premature responses (Wistar rats; [1]): reduced the number of premature responses compared to both the pre- and post-drug conditions at the 10 sec ITI | timeout responses (Wistar rats; [1]): reduced the number of timeout responses compared to both the pre- and post-drug conditions at the 10 sec ITI | Latency (Correct) (Wistar rats; [2]): 0.99 | Latency (Incorrect) (Wistar rats; [2]): 2.27 ± 0.12 | Magazine Head Entries (Wistar rats; [2]): 236.13 | Omissions (Wistar rats; [2]): 17.04 | Reward Latency (Wistar rats; [2]): 2.77 | Trials Completed (Wistar rats; [2]): 91.83 ± 4.15 | Latency (Correct) (Wistar rats; [3]): 0.90 ± 0.03 | Latency (Incorrect) (Wistar rats; [3]): 2.03 ± 0.09 | Magazine Head Entries (Wistar rats; [3]): 318.71 ± 34.88 | Omissions (Wistar rats; [3]): 9.63 ± 1.15 | Reward Latency (Wistar rats; [3]): 2.13 | Trials Completed (Wistar rats; [3]): 85.62 ± 4.17 | Latency (Correct) (Wistar rats; [4]): 0.97 | Latency (Incorrect) (Wistar rats; [4]): 2.26 | Magazine Head Entries (Wistar rats; [4]): 268.17 | Omissions (Wistar rats; [4]): 13.42 | Reward Latency (Wistar rats; [4]): 3.21 | Trials Completed (Wistar rats; [4]): 87.50 | Latency (Correct) (Wistar rats; [5]): 0.81 ± 0.03 | Latency (Incorrect) (Wistar rats; [5]): 1.82 ± 0.10 | Magazine Head Entries (Wistar rats; [5]): 415.04 ± 70.50 | Omissions (Wistar rats; [5]): 6.75 ± 1.44 | Reward Latency (Wistar rats; [5]): 2.06 | Trials Completed (Wistar rats; [5]): 78.46 ± 4.47

Reference: patent US20250108038A1 (priority 2023, published 2025)
